The record followed here is ChEMBL document CHEMBL1131284, “Hydroxamate-based inhibitors of low affinity IgE receptor (CD23) processing” (Bioorg Med Chem Lett, 1998).

Molecules are shown by their SMILES.

The assay has as its target T1, Interstitial collagenase (Homo sapiens, UniProt P03956).
T1 sequence (P03956 whole entry): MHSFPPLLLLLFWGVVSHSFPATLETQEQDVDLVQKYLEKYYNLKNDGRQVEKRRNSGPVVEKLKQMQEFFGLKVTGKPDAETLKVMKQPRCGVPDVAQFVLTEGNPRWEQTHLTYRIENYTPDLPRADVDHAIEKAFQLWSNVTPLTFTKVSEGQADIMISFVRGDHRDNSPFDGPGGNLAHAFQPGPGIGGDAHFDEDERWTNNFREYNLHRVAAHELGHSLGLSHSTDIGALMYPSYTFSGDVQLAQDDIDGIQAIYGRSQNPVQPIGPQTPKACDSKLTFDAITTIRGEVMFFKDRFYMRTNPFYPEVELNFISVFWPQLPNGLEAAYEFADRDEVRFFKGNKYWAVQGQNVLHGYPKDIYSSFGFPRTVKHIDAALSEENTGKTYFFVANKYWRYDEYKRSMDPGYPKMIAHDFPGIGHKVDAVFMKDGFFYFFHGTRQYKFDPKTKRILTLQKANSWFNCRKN
As to the kind of experiment: Inhibitory activity towards human recombinant fibroblast collagenase.
On to `O=C(C[C@@H](CCc1ccccc1)C(=O)N[C@@H](Cc1ccccc1)C(=O)NCc1ccccc1)NO`, for which the 50% inhibitory concentration (IC50) (commonly the concentration that gives 50% inhibition) came out at 4.1 µM.

With `CC(C)C[C@@H](CC(=O)NO)C(=O)N[C@@H](Cc1ccccc1)C(=O)NCc1ccccc1`, the 50% inhibitory concentration (IC50) is above 10 µM. Consider `O=C(C[C@@H](CC1CCCC1)C(=O)N[C@@H](Cc1ccccc1)C(=O)NCc1ccccc1)NO`, for which the half-maximal inhibitory concentration (IC50) turned out to be 0.02 µM. As to `O=C(C[C@H](C(=O)N[C@@H](Cc1ccccc1)C(=O)NCc1ccccc1)c1ccccc1)NO`, the IC50 came out at 17 µM. `C[C@H](CC(=O)NO)C(=O)N[C@@H](Cc1ccccc1)C(=O)NCc1ccccc1`: the IC50 was above 10 µM.

With `O=C(C[C@H](C(=O)N[C@@H](Cc1ccccc1)C(=O)NCc1ccccc1)c1ccc(-c2ccccc2)cc1)NO`, the IC50 was above 10 µM.

With `O=C(C[C@H](C(=O)N[C@@H](Cc1ccccc1)C(=O)NCc1ccccc1)C1CCCCC1)NO`, the IC50 was 1.5 µM. Take `CN(C)C[C@H](CC(=O)NO)C(=O)N[C@@H](Cc1ccccc1)C(=O)NCc1ccccc1`: the concentration for half-maximal inhibition (IC50) is above 10 µM. For the compound `O=C(C[C@@H](Cc1ccccc1)C(=O)N[C@@H](Cc1ccccc1)C(=O)NCc1ccccc1)NO`, the IC50 came out at 7 µM. As to `O=C(C[C@@H](Cc1ccc2ccccc2c1)C(=O)N[C@@H](Cc1ccccc1)C(=O)NCc1ccccc1)NO`, the IC50 was above 10 µM. Consider `O=C(C[C@@H](CC1CCCCC1)C(=O)N[C@@H](Cc1ccccc1)C(=O)NCc1ccccc1)NO`, for which the IC50 was 4.6 µM. The same measure for `O=C(CCC(=O)N[C@@H](Cc1ccccc1)C(=O)NCc1ccccc1)NO`: above 10 µM. For the compound `O=C(C[C@H](C(=O)N[C@@H](Cc1ccccc1)C(=O)NCc1ccccc1)c1cccc2ccccc12)NO`, the IC50 is above 10 µM.

On to `CC(C)S[C@H](CC(=O)NO)C(=O)N[C@@H](Cc1ccccc1)C(=O)NCc1ccccc1`, for which the IC50 stood at 1.9 µM. As for `CC(C)C[C@H](CC(=O)NO)C(=O)N[C@@H](Cc1ccccc1)C(=O)NCc1ccccc1`, the IC50 is 0.03 µM. The result for `O=C(C[C@@H](CCC1CCCCC1)C(=O)N[C@@H](Cc1ccccc1)C(=O)NCc1ccccc1)NO` reads above 10 µM.
